Test results from patent publication US20260345593A1, “ORAL FORMULATION OF N-PYRIDINYL ACETAMIDE DERIVATIVE FOR TREATING INTERSTITIAL LUNG DISEASE” (AstraZeneca AB, priority 2022, published 2026).

Tested on: healthy participants
Experiment: Example 2: safety in healthy participants
Assay type: in vivo, human
Procedure: The study comprises a screening period of maximum 28 days, and five periods during which subjects will participate from Day −1 of Period 1 to 72 hours after the AZD5055 dose in Period 5.
Period 1: On Day 1, the subjects will receive either 5 mg AZD5055 as a 20-minute IV infusion (Treatment A) in an overnight fasted state or AZD5055 20 mg as oral suspension (Treatment B) in an overnight fasted state.
Period 2: On Day 1 (Study Day 4), the subjects will receive 20 mg AZD5055 film-coated tablet (Treatment C) in an overnight fasted state.
Period 3: On Day 1 (Study Day 8) the subjects will receive a standardized high-fat breakfast 30 minutes before 20 mg AZD5055 administered as film-coated tablet (Treatment D).
Period 4: On Study Day 10, three days prior to Day 1, 20 mg rabeprazole will be administered twice daily. On Day 1 (Study Day 13), 20 mg AZD5055 film-coated tablet will be administered together with rabeprazole and rabeprazole dosing will continue twice daily (Treatment E).
Period 5: On Day 1 (Study Day 17) the participants will receive a low-fat breakfast 30 minutes before 20 mg AZD5055 film-coated tablet administered together with 20 mg rabeprazole.
Rabeprazole will continue twice daily, the last dose is on the evening of Study Day 18 (Treatment F).
Safety Variables—Safety endpoints included adverse events (AEs), clinical laboratory assessments (hematology, clinical chemistry, urinalysis, and urinary albumin:creatinine ratios), vital signs and peripheral oxygen saturation (SpO2), standard 12-lead electrocardiogram, (ECG), telemetry, and physical examinations.
All safety data (scheduled and unscheduled) were presented in the data listings. Continuous variables were summarized using descriptive statistics (n, mean, SD, min, median, max) by treatment. Categorical variables were summarized in frequency tables (frequency and proportion) by treatment/dose group. The analysis of the safety variables was based on the safety analysis set.

Cc1cc(-c2nccc3c2ccn3CC(=O)Nc2ccc(-c3cnccn3)cn2)ccn1 [AZD5055, 2-[4-(2-methyl-4-pyridyl)pyrrolo[3,2-c]pyridin-1-yl]-N-(5-pyrazin-2-yl-2-pyridyl)acetamide]
participants with SAE (transaminases increased), possibly related (Period 3 (tablet, high-fat fed)): One | AEs leading to discontinuation, events (after dosing in Period 3): 2 events | participants with AE leading to discontinuation (after dosing in Period 3, transaminases increased and non-cardiac chest pain): Two | participants with at least 1 AE of Grade 1 intensity (in total): 8 participants | participants with at least 1 AE of Grade 2 intensity (in total): 4 participants | AEs Grade 3 or higher (in vivo): No AEs Grade 3 or higher | deaths (in vivo): no deaths | laboratory parameters, vital signs, ECGs, physical examination (in vivo): No clinically relevant trends | AEs possibly related to AZD5055, events (overall): 9 events | any AE, events (overall): 20 events | participants with any AE (overall): 11 participants | participants with any AE possibly related to AZD5055 (overall): Five | tolerability (single oral and IV doses): generally well tolerated
